Test results taken from US20190255114A1, “STORAGE OF PLATELETS” (University of Kentucky Research Foundation, priority 2018, published 2019).

Columns and labels:
[1] = tested on: PRP from C57BL/6 mice; assay: Cold storage of mouse PRP: aggregation and platelet counts; format: cell-based; settings: PRP with EGTA
From the text: This conclusion is drawn based on the experiments using washed platelets. Although a small portion of platelet products uses platelet additive solution (PAS), most platelet products used for transfusion are in plasma. Therefore, whether PRP has a similar phenotype as observed in washed platelets was examined.

[2] = tested on: cold-stored PRP from C57BL/6-Tg(CAGEGFP)1 Osb/J; assay: Clearance of transfused cold-stored GFP platelets in PRP; format: in vivo, C57BL/6J mice; settings: inclusion of EGTA, retro-orbital injection
Protocol: C57BL/6J mice were injected retro-orbitally with fresh or cold-stored PRP (2.5×10^8 per mouse) from C57BL/6-Tg(CAGEGFP)1 Osb/J. Blood was collected from the recipients and platelets were analyzed by flow cytometry, n=4). Rapid clearance of cold-stored platelets in PRP is less severe than washed platelets.

[3] = tested on: washed GFP platelets; assay: Clearance of transfused cold-stored washed GFP platelets (flow cytometry); format: in vivo, C57BL/6J mice; settings: 50 uM EGTA, stored at 4° C. for 24 hours, retro-orbital injection
Protocol: To monitor the life span of transfused platelets in circulation, a method that can easily differentiate the transfused platelets from recipient platelets was developed. Platelets from C57BL/6-Tg(CAGEGFP)1 Osb/J mice (GFP mice) (From Jackson Laboratories) are GFP positive that are distinct from the recipient platelets by flow cytometry assay (FIG. 6A). C57BL/6J mice were injected retro-orbitally with washed GFP platelets (2.5×10^8 per mouse). 60 μl blood was collected from mice and PRP was analyzed by flow cytometry. Quantitative results were expressed as percentage of survived transfused platelets (GFP positive cells at 5 min after transfusion was set to 100%; mean±SD; n=5). […]
C57BL/6J mice were injected retro-orbitally with fresh washed GFP platelets or GFP platelets stored at 4° C. for 24 hours (2.5×10^8 per mouse) with or without 1 mM RGDS. Blood was collected from mice and platelets were analyzed by flow cytometry. Quantitative results were expressed as percentage of survived transfused platelets (GFP positive cells of transfused fresh platelets at 5 min after transfusion was set to 100%, n=4). […]
Blood was collected from mice and platelets were analyzed by flow cytometry. Quantitative results were expressed as percentage of survived transfused platelets (GFP positive cells of transfused fresh platelets at 5 min after transfusion was set to 100%, n=4). […]

[4] = tested on: washed platelets from C57BL/6J mice; assay: Platelet adhesion and spreading on fibrinogen; format: cell-based; settings: EGTA 100 μM
Protocol: Platelets were then added with buffer or 1 mM CaCl2). Washed platelets suspended in Tyrode's solution with 1 mM CaCl2 were used as a control. Platelets were then added to polystyrene dishes coated with 50 μg/mL of fibrinogen and incubated at 37° C. for 60 minutes and labeled with Rhodamine-Phalloidin and photographed using a fluorescence microscope. […] This conclusion was further confirmed by a fibrinogen binding assay.

[5] = tested on: washed platelets from C57BL/6 mice; assay: Cold storage of washed mouse platelets: aggregation and single platelet counts; format: cell-based; settings: presence of EGTA, 4° C. for various time
Protocol: To investigate the mechanism of the rapid clearance after cold storage, washed platelets from C57BL/6 mice were suspended in Ca^++ free Tyrode's solution (12 mM NaHCO3, 138 mM NaCl, 5.5 mM glucose, 2.9 mM KCl, 2 mM MgCl2, 0.42 mM NaH2PO4, 10 mM HEPES, pH 7.4). and stored at RT or 4° C. Washed platelets from C57BL/6 mice were stored at RT or 4° C. for 24 hours. After storage, platelets were incubated with Oregon Green-labeled fibrinogen at 22° C. for 30 min. Fibrinogen binding to platelets was analyzed by flow cytometry. […] To confirm this observation, single platelet count was measured using a HEMAVET HV950FS multispecies hematology analyzer. Indeed, platelet counts were reduced dramatically after platelets were stored at 4° C. for over 24 hours (FIG. 1B).
To determine the molecular mechanism by which cold induces platelet activation, washed platelets prepared from C57BL/6 mice were stored at RT, cold, or cold with O-sialoglycoprotein endopeptidase (OSGE). […] GPIbα-dependent platelet activation is one of the major mechanisms leading to rapid clearance of cold-stored platelets.
If cold-induced aggregation is due to integrin activation, integrin inhibitors should be able to inhibit this process. Washed platelets from C57BL/6 mice, suspended in Ca^++ free Tyrode's solution, were added with 1 mM RGDS and stored at 4° C. for 24 hours. […]

[6] = target: T1, αIIbβ3 (Mus musculus, UniProt O54890+Q9QUM0); assay: Thrombin-induced fibrinogen binding to platelets (integrin ligand binding function); format: cell-based, C57BL/6J mice; settings: 100 μM EGTA
T1 construct: Washed platelets from C57BL/6J mice suspended in Tyrode's solution; endogenous in cells; host or cells: washed platelets from C57BL/6J mice
T1 sequence (Q9QUM0 32-1033): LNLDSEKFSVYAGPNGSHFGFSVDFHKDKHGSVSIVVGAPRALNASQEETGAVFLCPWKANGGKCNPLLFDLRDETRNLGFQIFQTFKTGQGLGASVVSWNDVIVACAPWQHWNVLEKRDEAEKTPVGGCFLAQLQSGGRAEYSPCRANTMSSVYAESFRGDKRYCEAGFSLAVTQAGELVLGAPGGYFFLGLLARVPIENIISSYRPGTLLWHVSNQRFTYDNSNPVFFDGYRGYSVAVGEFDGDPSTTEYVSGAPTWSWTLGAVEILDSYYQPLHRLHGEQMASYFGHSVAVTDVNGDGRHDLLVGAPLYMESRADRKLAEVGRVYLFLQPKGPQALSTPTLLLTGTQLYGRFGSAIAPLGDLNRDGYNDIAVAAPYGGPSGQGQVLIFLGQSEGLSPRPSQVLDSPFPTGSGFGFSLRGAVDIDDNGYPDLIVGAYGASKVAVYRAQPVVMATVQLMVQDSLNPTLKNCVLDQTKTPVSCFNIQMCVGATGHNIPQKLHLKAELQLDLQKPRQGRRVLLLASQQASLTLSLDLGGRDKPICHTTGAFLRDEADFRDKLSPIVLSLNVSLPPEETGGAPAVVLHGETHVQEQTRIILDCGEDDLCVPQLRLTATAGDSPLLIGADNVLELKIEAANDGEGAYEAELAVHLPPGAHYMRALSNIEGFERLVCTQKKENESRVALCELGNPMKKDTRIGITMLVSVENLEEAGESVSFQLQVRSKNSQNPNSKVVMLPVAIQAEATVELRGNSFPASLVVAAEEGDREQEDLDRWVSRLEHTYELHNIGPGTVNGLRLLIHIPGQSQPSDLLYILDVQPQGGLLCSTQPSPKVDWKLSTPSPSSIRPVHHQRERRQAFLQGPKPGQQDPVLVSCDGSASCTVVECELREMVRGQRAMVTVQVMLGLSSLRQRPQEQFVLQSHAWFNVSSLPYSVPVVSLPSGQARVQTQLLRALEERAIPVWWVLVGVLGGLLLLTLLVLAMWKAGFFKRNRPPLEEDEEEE
T1 sequence (O54890 26-787): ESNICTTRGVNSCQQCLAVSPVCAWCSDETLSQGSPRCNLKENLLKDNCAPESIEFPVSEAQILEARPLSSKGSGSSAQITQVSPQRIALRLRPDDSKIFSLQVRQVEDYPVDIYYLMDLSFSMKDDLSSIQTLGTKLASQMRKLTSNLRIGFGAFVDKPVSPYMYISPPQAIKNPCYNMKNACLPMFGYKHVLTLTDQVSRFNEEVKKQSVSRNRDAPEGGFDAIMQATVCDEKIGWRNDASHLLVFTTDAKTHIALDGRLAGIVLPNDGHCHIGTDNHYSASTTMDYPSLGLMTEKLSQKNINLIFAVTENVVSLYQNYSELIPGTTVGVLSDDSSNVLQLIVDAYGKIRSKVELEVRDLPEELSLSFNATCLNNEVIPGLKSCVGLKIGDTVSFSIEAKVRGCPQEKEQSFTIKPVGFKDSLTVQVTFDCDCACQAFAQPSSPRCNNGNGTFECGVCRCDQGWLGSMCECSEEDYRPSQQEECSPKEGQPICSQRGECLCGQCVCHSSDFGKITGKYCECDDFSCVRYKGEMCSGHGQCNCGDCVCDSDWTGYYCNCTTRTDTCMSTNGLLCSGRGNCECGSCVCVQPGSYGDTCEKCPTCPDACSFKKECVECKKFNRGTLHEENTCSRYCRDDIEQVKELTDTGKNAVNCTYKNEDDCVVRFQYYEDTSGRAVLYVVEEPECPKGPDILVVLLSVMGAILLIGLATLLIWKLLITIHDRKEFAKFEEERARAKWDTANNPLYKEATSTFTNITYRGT
Protocol: Platelets were then added with buffer or 1 mM CaCl2). Washed platelets suspended in Tyrode's solution with 1 mM CaCl2 were used as a control. Platelets were incubated with Oregon Green-labeled fibrinogen and thrombin (0.1 U/ml) at 22° C. for 30 min. Quantitative results were expressed as fibrinogen binding indices (geomean of fluorescence intensity of stimulated platelets/geomean of fluorescence intensity of unstimulated platelets; n=3).

[7] = tested on: washed platelets from C57BL/6J mice; assay: Thrombin-induced platelet aggregation; format: cell-based
Protocol: Platelets were then added with buffer or 1 mM CaCl2). Washed platelets suspended in Tyrode's solution with 1 mM CaCl2 were used as a control. Platelet aggregation was induced by addition of thrombin (0.025 U/ml).

[8] = tested on: PRP prepared from healthy donors; assay: Cold storage of human PRP: platelet counts; format: cell-based; settings: human PRP (ACD anticoagulant), various time points
Protocol: Platelet counts were monitored at various time points. […] Fibrinogen binding to platelets increased after cold storage (FIG. 14B). […] The amount of serotonin secreted in the supernatant was then measured.

SMILES: O=C(O)CN(CCOCCOCCN(CC(=O)O)CC(=O)O)CC(=O)O [EGTA, ethylene glycol-bis(β-aminoethyl ether)-N,N,N′,N′-tetraacetic acid]
- reduction in platelet counts by cold storage ([1]; 4° C. for various time): effectively inhibited reduction in platelet counts
- platelet aggregation in PRP ([1]; cold storage): inhibited platelet aggregation
- quick clearance of cold-stored platelets in PRP [2]: significantly reduced quick clearance
- platelets that stayed in circulation for more than 2 hours [3]: About 75%
- rapid clearance of cold-stored platelets [3]: significantly inhibited rapid clearance
- platelet adhesion and spreading on fibrinogen ([4]; 50 μg/mL fibrinogen, 37° C. for 60 minutes): inhibited platelet adhesion and spreading on fibrinogen
- reversal of the inhibition of adhesion and spreading ([4]; then 1 mM CaCl2): completely reversed
- cold-induced platelet aggregation [5]: completely inhibited cold-induced platelet aggregation
- reduction in platelet counts [5]: completely inhibited
- reversal of the inhibition of fibrinogen binding ([6]; then 1 mM CaCl2): reversed
- thrombin-induced fibrinogen binding to platelets ([6]; thrombin 0.1 U/ml, 22° C. for 30 min): completely inhibited
- platelet aggregation induced by thrombin ([7]; EGTA 100 μM at RT, thrombin 0.025 U/ml): inhibited platelet aggregation
- reversibility of the inhibition of platelet aggregation ([7]; EGTA 100 μM, then 1 mM CaCl2): reversible
- decrease of platelet counts after storage at 4° C. [8]: inhibited
